According to publication PMC12030165, “Bioactivity of Synthesized Trifluoromethyl Thioxanthone Analogues” (Pharmaceuticals, 2025):

Columns and labels:
[1] = DPPH antioxidant activity assay
Protocol: To evaluate four synthesized compounds and Trolox (as a positive control), a 1 mg/mL concentration in methanol was first made from phenyl alcohol. The prepared solution was produced in concentrations of 1, 2, 3, 5, 7, 10, 20, 30, 50, and 80 µg/mL. The DPPH reagent was then diluted in 0.002% w/v methanol and combined in a […] ratio with the previously produced working concentrations. A blank solution of 100% methanol was used. All solutions were incubated at room temperature for 30 min in a dark environment. Their absorbance values were then determined using a UV-visible spectrophotometer set at a wavelength of 517 nm. The antioxidant capacity of each chemical compound fraction and Trolox were calculated using the following formula:% inhibition = ((Abs blank − Abs Sample)/Abs Blank) × 100 where:
Abs blank: Absorbance value of the control reaction containing all reagents except the synthesized compound.
Abs sample: The absorbance value of the synthesized compound [48].

[2] = biological target: T1, porcine pancreatic α-amylase (Sus scrofa, UniProt P00690); assay: α-Amylase inhibition assay (DNSA); assay type: biochemical
T1 construct: purchased MP Biochemicals (Illkirch, France)
T1 sequence (P00690 16-511): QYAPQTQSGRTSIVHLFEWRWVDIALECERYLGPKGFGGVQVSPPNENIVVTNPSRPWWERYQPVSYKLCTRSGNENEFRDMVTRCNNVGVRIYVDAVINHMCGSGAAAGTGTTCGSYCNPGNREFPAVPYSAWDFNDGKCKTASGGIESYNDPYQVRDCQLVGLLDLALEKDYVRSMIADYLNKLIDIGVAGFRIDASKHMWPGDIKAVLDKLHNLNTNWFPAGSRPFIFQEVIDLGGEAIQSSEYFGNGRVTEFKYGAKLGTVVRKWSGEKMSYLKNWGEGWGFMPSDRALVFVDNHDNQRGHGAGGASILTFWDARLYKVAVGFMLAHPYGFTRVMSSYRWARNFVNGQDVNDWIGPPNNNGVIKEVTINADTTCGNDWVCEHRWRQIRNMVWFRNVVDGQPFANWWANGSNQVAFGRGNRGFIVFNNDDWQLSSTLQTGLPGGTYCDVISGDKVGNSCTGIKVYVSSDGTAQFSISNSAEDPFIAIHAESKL
Protocol: Each product was initially dissolved in a few milliliters of 10% DMSO and then further diluted in a buffer solution (0.02 M Na2HPO4/NaH2PO4, 0.006 M NaCl, at pH 6.9) to prepare stock solutions at a concentration of 1000 µg/mL. From these stock solutions, further dilutions were made to obtain concentrations of 20, 50, and 70 µg/mL, using 10% DMSO as a diluent. A porcine pancreatic α-amylase enzyme solution was prepared at 2 units/mL concentration in 10% DMSO. For the working solutions, 0.2 mL of the enzyme solution was mixed with 0.2 mL of each product, and the mixture was incubated for 10 min at 30 °C. Following the incubation, 0.2 mL of a freshly prepared 1% starch aqueous solution was added to each working solution, which was then incubated for an additional 3 min. The reaction was halted by adding 0.2 mL of dinitrosalicylic acid (DNSA) yellow color reagent. Each working solution was diluted with 5 mL of distilled water and boiled for 10 min in a water bath at 90 °C. After cooling the mixture to room temperature, the absorbance was measured at 540 nm. The blank control was prepared similarly but replaced the product fraction with 0.2 mL of the buffer as mentioned above. Acarbose was used as the standard reference and was subjected to the same experimental procedures. The α-amylase inhibitory activity was calculated using the following equation [49]:% of α amylase inhibition = (AB − AE)/AB × 100%

[3] = biological target: T2, COX-1 (Homo sapiens, UniProt P23219); assay: COX (human) Inhibitor Screening Assay, COX-1; assay type: biochemical
T2 construct: purchased Cayman Chemicals 701230
Protocol: (§1) Our synthesized compounds’ COX-1 and COX-2 inhibitory activities were evaluated using the COX (human) Inhibitor Screening Assay Kit supplied by Cayman Chemicals (catalog no. 701230, Ann Arbor, MI, USA). The preparation of reagents and testing procedures were conducted according to the manufacturer’s recommendations. Two concentrations of the inhibitors (10 µM and 50 µM) were dissolved in a minimal amount of dimethyl sulfoxide (DMSO) and incubated with a mixture of COX-1 or COX-2 enzyme and heme in a diluted reaction buffer for 10 min at 37 °C. The reaction was initiated by adding 10 µL of arachidonic acid, followed by a two-minute incubation at 37 °C. The reaction was halted by adding 30 µL of stannous chloride solution to each reaction tube and incubating for 5 min at room temperature. The resulting PGF2α, produced by the COX reactions, was quantified using an enzyme-linked immunosorbent assay (ELISA). The 96-well plate was covered with plastic film and incubated for 18 h at room temperature on an orbital shaker. After incubation, the plate was rinsed five times with a wash buffer. Then, Ellman’s reagent (200 µL) was added, and the plate was incubated for approximately 60–90 min at room temperature until the absorbance of the blank well was in the range of 0.3–0.8 at 405 nm. The plate was read using a Unilab Microplate Reader 6000. The inhibitory percentage was calculated for each concentration tested against the control. The IC50 values were derived from the concentration-inhibition response curve, and the selectivity index (SI) was calculated by dividing the IC50 for COX-2 by the IC50 for COX-1 [52].

[4] = biological target: T3, COX-2 (Homo sapiens, UniProt P35354); assay: COX (human) Inhibitor Screening Assay, COX-2; assay type: biochemical; settings: for COX-2 Selectivity: ratio of COX-1 and COX-2 IC50
T3 construct: purchased Cayman Chemicals 701230
T3 sequence (P35354 18-604): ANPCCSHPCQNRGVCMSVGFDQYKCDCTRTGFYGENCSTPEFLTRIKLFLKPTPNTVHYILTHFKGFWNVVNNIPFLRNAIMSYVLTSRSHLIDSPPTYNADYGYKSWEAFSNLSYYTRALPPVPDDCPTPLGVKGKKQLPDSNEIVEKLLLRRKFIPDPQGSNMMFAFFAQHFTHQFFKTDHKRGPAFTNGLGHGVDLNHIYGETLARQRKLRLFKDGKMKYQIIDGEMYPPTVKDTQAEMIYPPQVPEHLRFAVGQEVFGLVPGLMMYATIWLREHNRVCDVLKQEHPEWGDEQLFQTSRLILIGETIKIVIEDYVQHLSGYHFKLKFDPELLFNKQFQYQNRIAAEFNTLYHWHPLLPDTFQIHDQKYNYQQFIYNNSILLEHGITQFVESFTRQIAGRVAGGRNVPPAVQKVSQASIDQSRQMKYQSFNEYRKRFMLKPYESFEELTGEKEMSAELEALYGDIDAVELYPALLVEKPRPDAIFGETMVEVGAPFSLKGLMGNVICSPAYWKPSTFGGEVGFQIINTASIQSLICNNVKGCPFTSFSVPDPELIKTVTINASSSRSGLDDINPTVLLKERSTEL
Protocol: as §1

T2 sequence (P23219 24-599): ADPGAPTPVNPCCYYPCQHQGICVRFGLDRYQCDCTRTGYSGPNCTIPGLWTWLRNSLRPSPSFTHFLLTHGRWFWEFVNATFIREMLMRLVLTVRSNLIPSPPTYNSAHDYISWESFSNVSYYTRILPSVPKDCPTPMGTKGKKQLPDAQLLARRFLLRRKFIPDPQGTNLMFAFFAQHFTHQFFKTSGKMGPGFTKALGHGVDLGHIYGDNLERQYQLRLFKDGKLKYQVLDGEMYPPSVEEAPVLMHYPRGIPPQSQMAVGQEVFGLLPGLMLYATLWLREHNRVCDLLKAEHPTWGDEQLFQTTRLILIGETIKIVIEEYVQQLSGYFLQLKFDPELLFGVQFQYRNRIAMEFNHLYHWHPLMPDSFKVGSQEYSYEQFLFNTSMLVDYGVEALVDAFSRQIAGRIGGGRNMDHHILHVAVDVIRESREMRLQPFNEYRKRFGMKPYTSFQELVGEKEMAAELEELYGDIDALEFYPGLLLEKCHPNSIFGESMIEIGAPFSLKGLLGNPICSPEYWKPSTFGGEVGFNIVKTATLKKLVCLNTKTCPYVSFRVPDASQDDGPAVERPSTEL

Row | Compound | % inhibition of DPPH radical (radical scavenging) ([1]; 1 µg/mL) | % inhibition of DPPH radical (radical scavenging) ([1]; 2 µg/mL) | % inhibition of DPPH radical (radical scavenging) ([1]; 3 µg/mL) | % inhibition of DPPH radical (radical scavenging) ([1]; 5 µg/mL) | % inhibition of DPPH radical (radical scavenging) ([1]; 7 µg/mL) | % inhibition of DPPH radical (radical scavenging) ([1]; 10 µg/mL) | % inhibition of DPPH radical (radical scavenging) ([1]; 20 µg/mL) | % inhibition of DPPH radical (radical scavenging) ([1]; 30 µg/mL) | % inhibition of DPPH radical (radical scavenging) ([1]; 50 µg/mL) | % inhibition of DPPH radical (radical scavenging) ([1]; 80 µg/mL) | IC50 [2] | IC50 [3] | IC50 [4] | COX-2 Selectivity [4] | IC50 of the α-Amylase inhibition activity [2]
1 | OC1(c2ccccc2)c2ccccc2Sc2ccc(C(F)(F)F)cc21 (stereo not drawn) [Compound 1, 9-phenyl-2-(trifluoromethyl)-9H-thioxanthen-9-ol] | 7.1 ± 1.2% | 7.6 ± 2.3% | 8.2 ± 1.5% | 8.6 ± 3.1% | 8.9 ± 2.3% | 9.3 ± 1.6% | 9.9 ± 2.5% | 12.6 ± 3.2% | 12.9 ± 2.6% | 16.3 ± 4.3% | 283000 nM | 40.2 ± 0.41 nM | 27.1 ± 0.6 nM | 1.5 | –
2 | OC1(Cc2ccccc2)c2ccccc2Sc2ccc(C(F)(F)F)cc21 (stereo not drawn) [Compound 2, 9-benzyl-2-(trifluoromethyl)-9H-thioxanthen-9-ol] | 36.3 ± 2.4% | 37.3 ± 3.9% | 39.3 ± 4.2% | 39.5 ± 3.4% | 39.7 ± 3.6% | 40.1 ± 4.9% | 40.7 ± 2.5% | 40.7 ± 3.8% | 41.6 ± 5.1% | 42.2 ± 3.9% | 60200 ± 800 nM | 14 ± 0.64 nM | 74.1 ± 0.48 nM | 0.2 | –
3 | S-(9-benzyl-2-(trifluoromethyl)-9H-thioxanthen-9-yl)-L-cysteine [Compound 3] | 31.3 ± 2.3% | 36.4 ± 3.5% | 39.9 ± 3.6% | 39.9 ± 4.1% | 40.1 ± 3.8% | 40.2 ± 5.1% | 40.4 ± 5.2% | 41.9 ± 4.9% | 42.9 ± 3.2% | 46.6 ± 2.4% | – | 32.5 ± 0.53 nM | 25.9 ± 0.45 nM | 1.3 | no inhibitory effect
